Results: ChEMBL document CHEMBL1932974, “Optimization of a novel kinase inhibitor scaffold for the dual inhibition of JAK2 and FAK kinases” (Bioorg Med Chem Lett, 2012)

Test system: not listed separately
Experiment: AUC (0 to infinity) in Sprague-Dawley rat at 5 mg/kg, po
Format: ADME, organism-based
Set-up: time infinity, dose 5 mg/kg, route oral
Details: plasma

SMILES | AUC(0-inf) [ng·h/mL]
CN(c1ccccc1-c1cc(Cl)c2cnc(Nc3ccc(C4CCN(CC(N)=O)CC4)cc3)nn12)S(C)(=O)=O | 832

Molecular target: T1, Tyrosine-protein kinase JAK3 (Homo sapiens, UniProt P52333)
T1 sequence (P52333 whole entry): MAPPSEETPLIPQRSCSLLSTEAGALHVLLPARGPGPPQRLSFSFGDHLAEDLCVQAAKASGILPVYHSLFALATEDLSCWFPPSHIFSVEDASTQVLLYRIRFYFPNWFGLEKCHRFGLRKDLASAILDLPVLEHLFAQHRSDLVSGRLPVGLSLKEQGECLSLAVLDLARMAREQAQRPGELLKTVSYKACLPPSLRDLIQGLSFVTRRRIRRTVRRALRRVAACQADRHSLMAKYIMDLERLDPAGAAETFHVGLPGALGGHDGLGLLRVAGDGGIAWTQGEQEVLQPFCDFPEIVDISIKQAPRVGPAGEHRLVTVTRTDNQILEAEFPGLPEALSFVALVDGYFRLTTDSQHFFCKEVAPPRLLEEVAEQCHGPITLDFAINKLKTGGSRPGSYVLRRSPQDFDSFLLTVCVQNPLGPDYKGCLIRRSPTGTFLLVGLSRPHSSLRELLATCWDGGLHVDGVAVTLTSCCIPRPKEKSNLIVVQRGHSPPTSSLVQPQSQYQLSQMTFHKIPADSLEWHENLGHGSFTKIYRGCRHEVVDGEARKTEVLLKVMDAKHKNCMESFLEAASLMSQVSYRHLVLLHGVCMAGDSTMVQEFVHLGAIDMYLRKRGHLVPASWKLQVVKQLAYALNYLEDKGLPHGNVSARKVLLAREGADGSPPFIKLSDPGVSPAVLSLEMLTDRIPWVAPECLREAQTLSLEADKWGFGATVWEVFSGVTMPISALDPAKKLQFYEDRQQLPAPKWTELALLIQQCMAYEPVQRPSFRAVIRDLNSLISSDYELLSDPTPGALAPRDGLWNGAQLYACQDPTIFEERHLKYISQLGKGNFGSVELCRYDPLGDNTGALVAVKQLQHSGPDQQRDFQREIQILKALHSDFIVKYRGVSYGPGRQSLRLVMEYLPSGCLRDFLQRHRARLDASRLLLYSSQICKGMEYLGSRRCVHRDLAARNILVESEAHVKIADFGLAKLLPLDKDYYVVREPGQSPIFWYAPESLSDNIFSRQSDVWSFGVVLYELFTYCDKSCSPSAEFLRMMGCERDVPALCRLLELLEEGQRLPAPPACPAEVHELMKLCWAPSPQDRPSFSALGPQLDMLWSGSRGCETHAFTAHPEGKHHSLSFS
Experiment: Inhibition of JAK3
Details: not given

SMILES | IC50 [nM]
CN(c1ccccc1-c1cc(Cl)c2cnc(Nc3ccc(C4CCN(CC(N)=O)CC4)cc3)nn12)S(C)(=O)=O | 2.9

Test system: not listed separately
Experiment: Metabolic stability in mouse liver microsomes
Format: ADME, Microsome
Details: read-out: Stability

SMILES | half-life [min]
CN(c1ccccc1-c1ccc2cnc(Nc3ccc(C4CCN(CC(N)=O)CC4)cc3)nn12)S(C)(=O)=O | 15
CN(c1ccccc1-c1cc(Cl)c2cnc(Nc3ccc(C4CCN(CC(N)=O)CC4)cc3)nn12)S(C)(=O)=O | 26

Molecular target: T2, Tyrosine-protein kinase JAK2 (Homo sapiens, UniProt O60674)
T2 sequence (O60674 whole entry): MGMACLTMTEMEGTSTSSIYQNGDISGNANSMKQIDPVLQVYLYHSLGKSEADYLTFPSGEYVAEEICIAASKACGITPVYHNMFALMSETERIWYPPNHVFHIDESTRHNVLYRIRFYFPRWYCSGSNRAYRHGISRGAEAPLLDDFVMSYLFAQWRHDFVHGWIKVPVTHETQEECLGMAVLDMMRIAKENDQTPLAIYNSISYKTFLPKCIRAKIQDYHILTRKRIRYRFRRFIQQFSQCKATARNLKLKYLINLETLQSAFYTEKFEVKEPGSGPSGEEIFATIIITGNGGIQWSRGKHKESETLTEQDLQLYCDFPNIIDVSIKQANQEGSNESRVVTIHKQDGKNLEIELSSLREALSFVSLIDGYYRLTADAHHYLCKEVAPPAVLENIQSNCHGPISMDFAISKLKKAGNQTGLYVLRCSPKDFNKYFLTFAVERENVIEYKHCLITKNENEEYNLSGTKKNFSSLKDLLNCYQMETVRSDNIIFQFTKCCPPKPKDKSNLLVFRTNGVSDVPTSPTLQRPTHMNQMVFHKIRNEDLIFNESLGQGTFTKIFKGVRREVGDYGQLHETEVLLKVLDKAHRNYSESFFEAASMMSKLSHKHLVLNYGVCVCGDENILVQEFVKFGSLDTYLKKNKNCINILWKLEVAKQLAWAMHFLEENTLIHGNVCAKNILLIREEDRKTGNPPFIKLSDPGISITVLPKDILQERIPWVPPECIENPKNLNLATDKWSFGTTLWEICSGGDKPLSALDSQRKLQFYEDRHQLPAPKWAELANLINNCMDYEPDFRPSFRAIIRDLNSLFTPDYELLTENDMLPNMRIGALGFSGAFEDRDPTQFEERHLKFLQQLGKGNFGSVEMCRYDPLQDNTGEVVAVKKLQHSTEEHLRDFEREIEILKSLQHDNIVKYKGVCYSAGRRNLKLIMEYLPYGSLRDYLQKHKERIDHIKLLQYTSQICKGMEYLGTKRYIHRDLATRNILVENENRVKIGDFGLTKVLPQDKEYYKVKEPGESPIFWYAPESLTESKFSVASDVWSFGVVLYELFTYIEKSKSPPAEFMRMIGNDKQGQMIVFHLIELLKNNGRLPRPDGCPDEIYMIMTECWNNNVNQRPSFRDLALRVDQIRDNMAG
Experiment: Inhibition of JAK2 in GM-CSF-stimulated human TF1 cells preincubated for 1 hr prior to challenge
Details: not given

SMILES | IC50 [nM]
COc1cccnc1-c1ccc2cnc(Nc3ccc(C4CCN(CC(N)=O)CC4)cc3)nn12 | 1140
COc1ccc(-c2ccc3cnc(Nc4ccc(C5CCN(CC(N)=O)CC5)cc4)nn23)cn1 | 62
CS(=O)(=O)Nc1cccc(-c2ccc3cnc(Nc4ccc(C5CCN(CC(N)=O)CC5)cc4)nn23)c1 | 60
NC(=O)CN1CCC(c2ccc(Nc3ncc4ccc(-c5cccc6cccnc56)n4n3)cc2)CC1 | 170
CN(c1cccc(-c2ccc3cnc(Nc4ccc(C5CCN(CC(N)=O)CC5)cc4)nn23)c1)S(C)(=O)=O | 45
NC(=O)CN1CCC(c2ccc(Nc3ncc4ccc(-c5cnccn5)n4n3)cc2)CC1 | 282
CN(c1ccccc1-c1ccc2cnc(Nc3ccc(C4CCN(CC(N)=O)CC4)cc3)nn12)S(C)(=O)=O | 15
COc1ccccc1-c1ccc2cnc(Nc3ccc(C4CCN(CC(N)=O)CC4)cc3)nn12 | 41
CN(c1ncccc1-c1ccc2cnc(Nc3ccc(C4CCN(CC(N)=O)CC4)cc3)nn12)S(C)(=O)=O | 38
CN(c1ccccc1-c1cc(Cl)c2cnc(Nc3ccc(C4CCN(CC(N)=O)CC4)cc3)nn12)S(C)(=O)=O | 12

Test system: not listed separately
Experiment: Half life in Sprague-Dawley rat at 1 mg/kg, iv
Format: ADME, organism-based
Set-up: dose 1 mg/kg, route intravenous
Details: in vivo

SMILES | half-life [min]
CN(c1ccccc1-c1cc(Cl)c2cnc(Nc3ccc(C4CCN(CC(N)=O)CC4)cc3)nn12)S(C)(=O)=O | 60

Molecular target: Insulin receptor (Homo sapiens, UniProt P06213)
Sequence (P06213 28-758 limits assumed): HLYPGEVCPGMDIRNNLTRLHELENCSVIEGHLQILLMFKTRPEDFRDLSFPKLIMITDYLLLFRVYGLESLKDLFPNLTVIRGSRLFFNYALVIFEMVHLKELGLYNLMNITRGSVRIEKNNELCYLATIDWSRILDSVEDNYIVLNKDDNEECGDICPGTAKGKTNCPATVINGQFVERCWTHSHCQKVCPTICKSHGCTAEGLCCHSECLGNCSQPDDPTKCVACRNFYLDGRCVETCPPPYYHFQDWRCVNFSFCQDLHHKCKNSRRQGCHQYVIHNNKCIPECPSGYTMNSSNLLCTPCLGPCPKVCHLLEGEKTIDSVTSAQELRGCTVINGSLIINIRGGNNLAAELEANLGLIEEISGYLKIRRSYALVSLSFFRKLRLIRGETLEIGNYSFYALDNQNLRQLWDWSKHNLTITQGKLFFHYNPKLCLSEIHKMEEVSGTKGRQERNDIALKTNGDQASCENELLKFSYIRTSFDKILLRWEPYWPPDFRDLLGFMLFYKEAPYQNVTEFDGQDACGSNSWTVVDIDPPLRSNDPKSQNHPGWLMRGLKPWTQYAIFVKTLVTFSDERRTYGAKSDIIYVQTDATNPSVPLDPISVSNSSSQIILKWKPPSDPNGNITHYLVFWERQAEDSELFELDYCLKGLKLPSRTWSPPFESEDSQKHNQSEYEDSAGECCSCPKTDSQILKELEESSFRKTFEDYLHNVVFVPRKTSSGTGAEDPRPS
Sequence (P06213 763-1382 limits assumed): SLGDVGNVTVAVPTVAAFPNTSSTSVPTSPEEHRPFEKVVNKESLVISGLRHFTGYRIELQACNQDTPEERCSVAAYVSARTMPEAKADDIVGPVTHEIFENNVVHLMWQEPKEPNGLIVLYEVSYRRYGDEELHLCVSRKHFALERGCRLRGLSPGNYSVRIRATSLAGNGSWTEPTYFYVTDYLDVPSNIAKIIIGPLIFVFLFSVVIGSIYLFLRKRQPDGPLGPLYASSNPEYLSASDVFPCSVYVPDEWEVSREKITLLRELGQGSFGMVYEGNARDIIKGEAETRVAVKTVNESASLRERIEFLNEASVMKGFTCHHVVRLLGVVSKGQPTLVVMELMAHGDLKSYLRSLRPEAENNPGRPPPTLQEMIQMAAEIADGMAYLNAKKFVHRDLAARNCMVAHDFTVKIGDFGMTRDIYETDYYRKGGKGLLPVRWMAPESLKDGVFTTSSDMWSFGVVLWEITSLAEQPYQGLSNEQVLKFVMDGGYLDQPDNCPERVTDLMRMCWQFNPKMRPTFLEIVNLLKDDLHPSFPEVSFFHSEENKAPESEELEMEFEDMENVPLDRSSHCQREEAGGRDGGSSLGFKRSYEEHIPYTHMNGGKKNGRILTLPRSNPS
Experiment: Inhibition of insulin receptor
Details: not given

SMILES | IC50 [nM]
CN(c1ccccc1-c1cc(Cl)c2cnc(Nc3ccc(C4CCN(CC(N)=O)CC4)cc3)nn12)S(C)(=O)=O | 380

Test system: not listed separately
Experiment: Volume of distribution in Sprague-Dawley rat at 1 mg/kg, iv
Format: ADME, organism-based
Set-up: dose 1 mg/kg, route intravenous
Details: in vivo

SMILES | Vd [L/kg]
CN(c1ccccc1-c1cc(Cl)c2cnc(Nc3ccc(C4CCN(CC(N)=O)CC4)cc3)nn12)S(C)(=O)=O | 1.3

Molecular target: T3, Focal adhesion kinase 1 (Homo sapiens, UniProt Q05397)
T3 sequence (Q05397 whole entry): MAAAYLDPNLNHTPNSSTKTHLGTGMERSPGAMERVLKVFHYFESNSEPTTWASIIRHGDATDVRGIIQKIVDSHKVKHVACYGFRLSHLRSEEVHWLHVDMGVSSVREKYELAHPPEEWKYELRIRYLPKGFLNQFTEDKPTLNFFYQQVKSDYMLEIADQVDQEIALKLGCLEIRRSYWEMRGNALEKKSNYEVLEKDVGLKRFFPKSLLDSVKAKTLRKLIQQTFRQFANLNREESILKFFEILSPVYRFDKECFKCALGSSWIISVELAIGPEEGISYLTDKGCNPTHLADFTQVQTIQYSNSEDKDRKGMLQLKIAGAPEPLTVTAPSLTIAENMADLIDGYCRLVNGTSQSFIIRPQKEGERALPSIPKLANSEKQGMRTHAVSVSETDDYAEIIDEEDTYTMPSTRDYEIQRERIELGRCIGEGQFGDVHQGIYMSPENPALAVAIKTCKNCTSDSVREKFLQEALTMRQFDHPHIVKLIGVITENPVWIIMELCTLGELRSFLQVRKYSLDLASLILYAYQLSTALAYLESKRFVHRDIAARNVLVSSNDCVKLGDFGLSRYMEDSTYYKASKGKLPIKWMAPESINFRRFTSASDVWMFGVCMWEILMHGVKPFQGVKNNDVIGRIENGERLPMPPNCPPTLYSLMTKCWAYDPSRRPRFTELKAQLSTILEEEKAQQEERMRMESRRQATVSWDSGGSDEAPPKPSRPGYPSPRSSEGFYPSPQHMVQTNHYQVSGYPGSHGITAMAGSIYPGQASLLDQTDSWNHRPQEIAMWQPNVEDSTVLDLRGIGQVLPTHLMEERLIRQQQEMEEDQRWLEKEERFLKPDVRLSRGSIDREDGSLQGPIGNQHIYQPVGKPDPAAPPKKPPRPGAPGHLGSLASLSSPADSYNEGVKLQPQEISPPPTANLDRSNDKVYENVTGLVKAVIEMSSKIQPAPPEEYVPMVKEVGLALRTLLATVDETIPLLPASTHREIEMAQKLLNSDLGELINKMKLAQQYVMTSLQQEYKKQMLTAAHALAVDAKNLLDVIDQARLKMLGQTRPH
Experiment: Inhibition of human recombinant FAK expressed in baculovirus expression system after 30 mins by time resolved fluorescence assay
Details: not given

SMILES | IC50 [nM]
COc1cccnc1-c1ccc2cnc(Nc3ccc(C4CCN(CC(N)=O)CC4)cc3)nn12 | 2040
COc1ccc(-c2ccc3cnc(Nc4ccc(C5CCN(CC(N)=O)CC5)cc4)nn23)cn1 | 39
CS(=O)(=O)Nc1cccc(-c2ccc3cnc(Nc4ccc(C5CCN(CC(N)=O)CC5)cc4)nn23)c1 | 21
NC(=O)CN1CCC(c2ccc(Nc3ncc4ccc(-c5cccc6cccnc56)n4n3)cc2)CC1 | 167
CN(c1cccc(-c2ccc3cnc(Nc4ccc(C5CCN(CC(N)=O)CC5)cc4)nn23)c1)S(C)(=O)=O | 48
NC(=O)CN1CCC(c2ccc(Nc3ncc4ccc(-c5cnccn5)n4n3)cc2)CC1 | 551
CN(c1ccccc1-c1ccc2cnc(Nc3ccc(C4CCN(CC(N)=O)CC4)cc3)nn12)S(C)(=O)=O | 14
COc1ccccc1-c1ccc2cnc(Nc3ccc(C4CCN(CC(N)=O)CC4)cc3)nn12 | 55
CN(c1ncccc1-c1ccc2cnc(Nc3ccc(C4CCN(CC(N)=O)CC4)cc3)nn12)S(C)(=O)=O | 14
CN(c1ccccc1-c1cc(Cl)c2cnc(Nc3ccc(C4CCN(CC(N)=O)CC4)cc3)nn12)S(C)(=O)=O | 5

Molecular target: T3, Focal adhesion kinase 1
Experiment: Inhibition of FAK in human 293GT cells after 1 hr by luminescence-based spectrophotometry
Format: cell-based
Details: not given

SMILES | IC50 [nM]
COc1cccnc1-c1ccc2cnc(Nc3ccc(C4CCN(CC(N)=O)CC4)cc3)nn12 | > 10000
COc1ccc(-c2ccc3cnc(Nc4ccc(C5CCN(CC(N)=O)CC5)cc4)nn23)cn1 | 1190
CS(=O)(=O)Nc1cccc(-c2ccc3cnc(Nc4ccc(C5CCN(CC(N)=O)CC5)cc4)nn23)c1 | 660
CN(c1cccc(-c2ccc3cnc(Nc4ccc(C5CCN(CC(N)=O)CC5)cc4)nn23)c1)S(C)(=O)=O | > 10000
CN(c1ccccc1-c1ccc2cnc(Nc3ccc(C4CCN(CC(N)=O)CC4)cc3)nn12)S(C)(=O)=O | 610
COc1ccccc1-c1ccc2cnc(Nc3ccc(C4CCN(CC(N)=O)CC4)cc3)nn12 | 690
CN(c1ncccc1-c1ccc2cnc(Nc3ccc(C4CCN(CC(N)=O)CC4)cc3)nn12)S(C)(=O)=O | 750
CN(c1ccccc1-c1cc(Cl)c2cnc(Nc3ccc(C4CCN(CC(N)=O)CC4)cc3)nn12)S(C)(=O)=O | 420

Test system: not listed separately
Experiment: Plasma protein binding in mouse
Format: ADME, cell-free
Details: read-out: PPB (converted)

SMILES | fraction unbound
CN(c1ccccc1-c1cc(Cl)c2cnc(Nc3ccc(C4CCN(CC(N)=O)CC4)cc3)nn12)S(C)(=O)=O | 0.006

Test system: not listed separately
Experiment: Metabolic stability in dog liver microsomes
Format: ADME, Canis lupus familiaris, Microsome
Details: read-out: Stability

SMILES | half-life [min]
CN(c1ccccc1-c1ccc2cnc(Nc3ccc(C4CCN(CC(N)=O)CC4)cc3)nn12)S(C)(=O)=O | 11
CN(c1ccccc1-c1cc(Cl)c2cnc(Nc3ccc(C4CCN(CC(N)=O)CC4)cc3)nn12)S(C)(=O)=O | 17

Test system: Mus musculus
Experiment: Inhibition of JAK2-mediated STAT3 phosphorylation in human CWR22 cells xenografted mouse at 55 mg/kg, po administered as a single dose measured up to 12 hrs
Format: functional
Details: CWR22, 12 h

SMILES | inhibition in vivo at 55 mg/kg [%]
CN(c1ccccc1-c1cc(Cl)c2cnc(Nc3ccc(C4CCN(CC(N)=O)CC4)cc3)nn12)S(C)(=O)=O | > 75

Test system: Mus musculus
Experiment: Inhibition of FAK phosphorylation in human CWR22 cells xenografted in mouse at 55 mg/kg, po administered as a single dose measured at 2 hrs
Format: functional
Details: CWR22, 2 h

SMILES | inhibition in vivo at 55 mg/kg [%]
CN(c1ccccc1-c1cc(Cl)c2cnc(Nc3ccc(C4CCN(CC(N)=O)CC4)cc3)nn12)S(C)(=O)=O | > 75

Test system: not listed separately
Experiment: AUC (0 to t) in Sprague-Dawley rat at 1 mg/kg, iv
Format: ADME, organism-based
Set-up: dose 1 mg/kg, route intravenous
Details: plasma

SMILES | AUC(0-t) [ng·h/mL]
CN(c1ccccc1-c1cc(Cl)c2cnc(Nc3ccc(C4CCN(CC(N)=O)CC4)cc3)nn12)S(C)(=O)=O | 1320

Test system: not listed separately
Experiment: Clearance in Sprague-Dawley rat at 1 mg/kg, iv
Format: ADME, organism-based
Set-up: dose 1 mg/kg, route intravenous
Details: in vivo

SMILES | clearance [mL/min/kg]
CN(c1ccccc1-c1cc(Cl)c2cnc(Nc3ccc(C4CCN(CC(N)=O)CC4)cc3)nn12)S(C)(=O)=O | 14

Test system: not listed separately
Experiment: Tmax in Sprague-Dawley rat at 5 mg/kg, po
Format: ADME, organism-based
Set-up: dose 5 mg/kg, route oral
Details: in vivo

SMILES | Tmax [min]
CN(c1ccccc1-c1cc(Cl)c2cnc(Nc3ccc(C4CCN(CC(N)=O)CC4)cc3)nn12)S(C)(=O)=O | 132

Test system: not listed separately
Experiment: Oral bioavailability in Sprague-Dawley rat at 5 mg/kg
Format: ADME, organism-based
Details: in vivo

SMILES | bioavailability [%]
CN(c1ccccc1-c1cc(Cl)c2cnc(Nc3ccc(C4CCN(CC(N)=O)CC4)cc3)nn12)S(C)(=O)=O | 12

Molecular target: T2, Tyrosine-protein kinase JAK2
Experiment: Inhibition of human recombinant JAK2 expressed in baculovirus expression system after 20 mins by time resolved fluorescence assay
Details: not given

SMILES | IC50 [nM]
COc1cccnc1-c1ccc2cnc(Nc3ccc(C4CCN(CC(N)=O)CC4)cc3)nn12 | 16
COc1ccc(-c2ccc3cnc(Nc4ccc(C5CCN(CC(N)=O)CC5)cc4)nn23)cn1 | 0.77
CS(=O)(=O)Nc1cccc(-c2ccc3cnc(Nc4ccc(C5CCN(CC(N)=O)CC5)cc4)nn23)c1 | 0.22
NC(=O)CN1CCC(c2ccc(Nc3ncc4ccc(-c5cccc6cccnc56)n4n3)cc2)CC1 | 6.3
CN(c1cccc(-c2ccc3cnc(Nc4ccc(C5CCN(CC(N)=O)CC5)cc4)nn23)c1)S(C)(=O)=O | 0.09
NC(=O)CN1CCC(c2ccc(Nc3ncc4ccc(-c5cnccn5)n4n3)cc2)CC1 | 8.9
CN(c1ccccc1-c1ccc2cnc(Nc3ccc(C4CCN(CC(N)=O)CC4)cc3)nn12)S(C)(=O)=O | 2
COc1ccccc1-c1ccc2cnc(Nc3ccc(C4CCN(CC(N)=O)CC4)cc3)nn12 | 0.6
CN(c1ncccc1-c1ccc2cnc(Nc3ccc(C4CCN(CC(N)=O)CC4)cc3)nn12)S(C)(=O)=O | 2.1
CN(c1ccccc1-c1cc(Cl)c2cnc(Nc3ccc(C4CCN(CC(N)=O)CC4)cc3)nn12)S(C)(=O)=O | 2.5

Test system: not listed separately
Experiment: Metabolic stability in rat liver microsomes
Format: ADME, Microsome
Details: read-out: Stability

SMILES | half-life [min]
CN(c1ccccc1-c1ccc2cnc(Nc3ccc(C4CCN(CC(N)=O)CC4)cc3)nn12)S(C)(=O)=O | 6
CN(c1ccccc1-c1cc(Cl)c2cnc(Nc3ccc(C4CCN(CC(N)=O)CC4)cc3)nn12)S(C)(=O)=O | 21

Test system: not listed separately
Experiment: Cmax in Sprague-Dawley rat at 5 mg/kg, po
Format: ADME, organism-based
Set-up: dose 5 mg/kg, route oral
Details: in vivo

SMILES | Cmax [ng/mL]
CN(c1ccccc1-c1cc(Cl)c2cnc(Nc3ccc(C4CCN(CC(N)=O)CC4)cc3)nn12)S(C)(=O)=O | 185

Test system: not listed separately
Experiment: Metabolic stability in human liver microsomes
Format: ADME, Microsome
Details: read-out: Stability

SMILES | half-life [min]
CN(c1ccccc1-c1ccc2cnc(Nc3ccc(C4CCN(CC(N)=O)CC4)cc3)nn12)S(C)(=O)=O | < 5
CN(c1ccccc1-c1cc(Cl)c2cnc(Nc3ccc(C4CCN(CC(N)=O)CC4)cc3)nn12)S(C)(=O)=O | 11
